These results are taken from patent US20240383875A1, “Benzimidazole Pyridine Derivatives” (Hoffmann-La Roche Inc., priority 2022, published 2024).

Common to all, as to assay type: biochemical
For one assay, the target named is SIK1 (Homo sapiens, UniProt P57059). The experiment in a line: Enzymatic activity assay SIK1, RapidFire mass spectrometry (phosphorylation of CHK-peptide). Particulars: RapidFire MS, inhibition of SIK1; read-out: SIK1 RF IC50. The method, boiled down: (§1)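 Human SIK1/2/3, 5/0.5/1.5 nM; 12.5 mM HEPES pH 7.0, 10 mM Mg acetate, 0.005% BSA. 30 min cpd pre-inc, + CHK-peptide (10 μM soln) + ATP (100 μM soln), 45 min RT. Formic acid stop; RF-MS phospho ratio; IC50.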
Sequence of SIK1 (P57059 whole entry): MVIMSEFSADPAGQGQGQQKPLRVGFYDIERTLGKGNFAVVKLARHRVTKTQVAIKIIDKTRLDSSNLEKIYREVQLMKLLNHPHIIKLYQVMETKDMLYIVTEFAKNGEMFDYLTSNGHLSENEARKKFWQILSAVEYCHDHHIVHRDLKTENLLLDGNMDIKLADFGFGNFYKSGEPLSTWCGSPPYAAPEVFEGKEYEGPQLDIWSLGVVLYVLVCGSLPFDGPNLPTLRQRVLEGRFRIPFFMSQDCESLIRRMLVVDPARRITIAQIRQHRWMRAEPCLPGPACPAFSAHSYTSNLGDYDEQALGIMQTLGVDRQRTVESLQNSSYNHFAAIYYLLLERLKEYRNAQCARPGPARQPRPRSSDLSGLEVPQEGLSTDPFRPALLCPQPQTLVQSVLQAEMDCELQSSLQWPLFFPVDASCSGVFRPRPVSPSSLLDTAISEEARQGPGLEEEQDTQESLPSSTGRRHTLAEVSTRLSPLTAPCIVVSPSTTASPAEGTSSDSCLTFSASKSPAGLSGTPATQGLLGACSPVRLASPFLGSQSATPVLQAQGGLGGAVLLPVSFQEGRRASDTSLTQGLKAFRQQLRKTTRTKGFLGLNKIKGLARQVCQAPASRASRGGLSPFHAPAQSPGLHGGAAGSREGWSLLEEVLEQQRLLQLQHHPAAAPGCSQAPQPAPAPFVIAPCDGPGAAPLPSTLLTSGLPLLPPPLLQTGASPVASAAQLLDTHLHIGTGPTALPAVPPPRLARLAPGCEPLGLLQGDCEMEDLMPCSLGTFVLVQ

The target of another assay is SIK2 (Homo sapiens, UniProt Q9H0K1). The experiment in a line: Enzymatic activity assay SIK2, RapidFire mass spectrometry (phosphorylation of CHK-peptide). Conditions: RapidFire MS, inhibition of SIK2; read-out: SIK2 RF IC50. A digest of the protocol: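 Read-out is the summed phospho-species fraction of CHK-peptide by RapidFire mass spectrometry, normalized between DMSO and 1 μM YKL-05-099. The reaction used 0.5 nM SIK2, 100 μM ATP and 10 μM peptide solutions in HEPES pH 7.0/10 mM magnesium acetate for 45 min at ambient temperature.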
Sequence of SIK2 (Q9H0K1 whole entry): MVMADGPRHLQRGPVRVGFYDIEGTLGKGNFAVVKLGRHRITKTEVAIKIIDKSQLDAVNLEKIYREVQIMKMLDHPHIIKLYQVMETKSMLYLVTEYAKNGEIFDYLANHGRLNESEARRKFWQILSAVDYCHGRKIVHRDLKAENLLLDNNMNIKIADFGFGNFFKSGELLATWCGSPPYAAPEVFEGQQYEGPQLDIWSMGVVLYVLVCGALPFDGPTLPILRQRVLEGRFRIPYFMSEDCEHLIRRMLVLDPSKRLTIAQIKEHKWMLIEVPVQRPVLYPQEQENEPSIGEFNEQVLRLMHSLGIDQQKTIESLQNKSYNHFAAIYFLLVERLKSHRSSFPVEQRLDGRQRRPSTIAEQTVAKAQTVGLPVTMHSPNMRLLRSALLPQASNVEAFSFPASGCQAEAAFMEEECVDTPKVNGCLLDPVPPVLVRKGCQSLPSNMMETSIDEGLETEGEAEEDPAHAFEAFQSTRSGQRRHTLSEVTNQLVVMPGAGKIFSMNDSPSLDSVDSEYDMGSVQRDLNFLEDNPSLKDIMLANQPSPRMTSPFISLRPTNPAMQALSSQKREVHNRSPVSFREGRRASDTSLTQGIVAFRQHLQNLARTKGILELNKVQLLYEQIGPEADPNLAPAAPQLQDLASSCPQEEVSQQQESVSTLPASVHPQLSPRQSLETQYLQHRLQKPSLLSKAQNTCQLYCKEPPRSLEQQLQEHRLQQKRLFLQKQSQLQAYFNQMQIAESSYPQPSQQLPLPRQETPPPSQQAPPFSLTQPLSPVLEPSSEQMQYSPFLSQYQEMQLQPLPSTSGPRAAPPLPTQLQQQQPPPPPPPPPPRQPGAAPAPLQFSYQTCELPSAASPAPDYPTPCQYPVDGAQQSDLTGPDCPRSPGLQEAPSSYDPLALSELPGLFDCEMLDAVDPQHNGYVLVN

For another assay, the target named is SIK3 (Homo sapiens, UniProt Q9Y2K2). Description: Enzymatic activity assay SIK3, RapidFire mass spectrometry (phosphorylation of CHK-peptide). Particulars: RapidFire MS, inhibition of SIK3; read-out: SIK3 RF IC50. The method, boiled down:
as §1

Sequence of SIK3 (Q9Y2K2 whole entry): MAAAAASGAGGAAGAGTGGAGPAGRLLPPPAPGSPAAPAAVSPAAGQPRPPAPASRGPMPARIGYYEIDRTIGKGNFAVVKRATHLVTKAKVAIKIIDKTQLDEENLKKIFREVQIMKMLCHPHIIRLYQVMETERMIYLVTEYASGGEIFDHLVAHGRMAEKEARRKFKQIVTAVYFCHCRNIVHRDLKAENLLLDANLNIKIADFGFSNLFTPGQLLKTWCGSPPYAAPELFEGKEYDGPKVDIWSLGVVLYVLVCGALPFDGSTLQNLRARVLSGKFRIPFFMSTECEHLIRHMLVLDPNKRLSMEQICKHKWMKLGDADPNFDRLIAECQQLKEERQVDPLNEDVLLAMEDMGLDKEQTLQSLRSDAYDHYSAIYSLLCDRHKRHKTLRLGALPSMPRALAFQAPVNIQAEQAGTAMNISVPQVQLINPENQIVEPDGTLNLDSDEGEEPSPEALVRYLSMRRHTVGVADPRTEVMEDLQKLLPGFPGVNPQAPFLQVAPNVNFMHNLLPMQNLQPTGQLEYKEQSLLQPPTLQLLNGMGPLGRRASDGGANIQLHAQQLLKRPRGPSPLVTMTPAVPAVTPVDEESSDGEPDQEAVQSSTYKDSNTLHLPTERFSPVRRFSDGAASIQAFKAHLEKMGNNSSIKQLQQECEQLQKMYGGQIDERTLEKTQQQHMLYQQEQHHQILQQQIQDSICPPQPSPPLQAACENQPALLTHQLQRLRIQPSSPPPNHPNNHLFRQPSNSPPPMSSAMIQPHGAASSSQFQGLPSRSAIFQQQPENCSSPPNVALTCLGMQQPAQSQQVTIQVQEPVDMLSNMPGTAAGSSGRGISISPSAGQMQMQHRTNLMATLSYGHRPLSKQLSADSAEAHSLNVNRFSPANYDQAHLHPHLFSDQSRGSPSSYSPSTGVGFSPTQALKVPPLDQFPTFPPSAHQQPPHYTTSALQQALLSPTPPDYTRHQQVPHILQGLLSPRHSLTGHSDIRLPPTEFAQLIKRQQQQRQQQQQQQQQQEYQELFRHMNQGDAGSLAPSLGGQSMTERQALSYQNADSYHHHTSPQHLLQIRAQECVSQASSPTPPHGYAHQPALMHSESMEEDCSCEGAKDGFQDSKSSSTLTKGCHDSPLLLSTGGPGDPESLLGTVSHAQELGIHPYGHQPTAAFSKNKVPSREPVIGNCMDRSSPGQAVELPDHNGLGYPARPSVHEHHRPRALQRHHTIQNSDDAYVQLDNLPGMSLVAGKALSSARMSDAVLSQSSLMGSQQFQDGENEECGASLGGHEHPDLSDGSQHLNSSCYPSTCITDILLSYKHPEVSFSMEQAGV

By IC50 is commonly meant the concentration at which inhibition is half-maximal. For `Cc1cc(C#N)nn1-c1nc(-n2cnc3cc(CN4CCCC4=O)ccc32)ccc1C(C)O` (stereo not drawn) [Example 213, 1-[3-(1-Hydroxyethyl)-6-[5-[(2-oxopyrrolidin-1-yl)methyl]benzimidazol-1-yl]-2-pyridyl]-5-methyl-pyrazole-3-carbonitrile], the half-maximal inhibitory concentration (IC50) was found to be 7580 nM on SIK1, 1520 nM on SIK2 and 174 nM at SIK3.

`COc1cc(C)n(-c2nc(-n3cnc4cc(Nc5ccc(C)nn5)ccc43)ccc2C(C)O)n1` (stereo not drawn) [Example 214, 1-[2-(3-Methoxy-5-methyl-pyrazol-1-yl)-6-[5-[(6-methylpyridazin-3-yl)amino]benzimidazol-1-yl]-3-pyridyl]ethanol; formic acid]: the values for the half-maximal inhibitory concentration (IC50) on SIK1, on SIK2 and on SIK3 were 1430 nM, 20.7 nM and 3.5 nM, respectively.

For `Cc1cc(C#N)nn1-c1nc(-n2cnc3ccc(CN4CCCCC4=O)cc32)ccc1C(C)O` (stereo not drawn) [Example 215, 1-[3-(1-Hydroxyethyl)-6-[6-[(2-oxo-1-piperidyl)methyl]benzimidazol-1-yl]-2-pyridyl]-5-methyl-pyrazole-3-carbonitrile], the IC50 worked out at 347 nM on SIK1, 371 nM on SIK2 and 1860 nM at SIK3.

Turning to `Cc1cc(C#N)nn1-c1nc(-n2cnc3cc(CN4CCCCC4=O)ccc32)ccc1C(C)O` (stereo not drawn) [Example 216, 1-[3-(1-Hydroxyethyl)-6-[5-[(2-oxo-1-piperidyl)methyl]benzimidazol-1-yl]-2-pyridyl]-5-methyl-pyrazole-3-carbonitrile], the 50% inhibitory concentration (IC50) on SIK1 worked out at 10800 nM; at SIK2 it was 2240 nM; on SIK3, 476 nM.

With `Cc1cc(C(=O)N(C)C)c(Nc2ccc3c(c2)ncn3-c2ccc(C(C)O)c(-n3nc(C#N)cc3C)n2)nn1` (stereo not drawn) [Example 219, 3-[[1-[6-(3-Cyano-5-methyl-pyrazol-1-yl)-5-(1-hydroxyethyl)-2-pyridyl]benzimidazol-5-yl]amino]-N,N,6-trimethyl-pyridazine-4-carboxamide], the results for the half-maximal inhibitory concentration (IC50) on SIK1, on SIK2 and at SIK3 were 2200 nM, 6.8 nM and 4.2 nM, respectively.

On to `Cc1ccc(Nc2ccc3c(c2)ncn3-c2ccc(C(C)O)c(-c3ccc(O)cc3C#N)n2)nn1` (stereo not drawn) [Example 220, 5-Hydroxy-2-[3-(1-hydroxyethyl)-6-[5-[(6-methylpyridazin-3-yl)amino]benzimidazol-1-yl]-2-pyridyl]benzonitrile; formic acid], for which the values for the IC50 on SIK1, on SIK2 and on SIK3 were 6740 nM, 154 nM and 46.2 nM, respectively.

In the case of `Cc1ccc(Nc2ccc3c(c2)ncn3-c2ccc(C(C)O)c(-c3cc(C(F)(F)F)n[nH]c3=O)n2)nn1` (stereo not drawn) [Example 223, 5-[3-(1-Hydroxyethyl)-6-[5-[(6-methylpyridazin-3-yl)amino]benzimidazol-1-yl]-2-pyridyl]-3-(trifluoromethyl)-1H-pyridazin-6-one; formic acid], the half-inhibitory concentration (IC50) on SIK1 is above 30000 nM; on SIK2, 1570 nM; on SIK3 it was 335 nM.

In the case of `Cc1ccc(Nc2ccc3c(c2)ncn3-c2ccc(C(C)O)c(-c3occc3C#N)n2)nn1` (stereo not drawn) [Example 226, 2-[3-(1-Hydroxyethyl)-6-[5-[(6-methylpyridazin-3-yl)amino]benzimidazol-1-yl]-2-pyridyl]furan-3-carbonitrile], the figures for the IC50 on SIK1, on SIK2 and on SIK3 were above 30000 nM, 62.1 nM and 21.7 nM, respectively.

Take `Cc1ccc(Nc2ccc3c(c2)ncn3-c2ccc(C(C)O)c(-c3ccnn3C3CC3(F)F)n2)nn1` (stereo not drawn) [Example 227, 1-[2-[2-(2,2-Difluorocyclopropyl)pyrazol-3-yl]-6-[5-[(6-methylpyridazin-3-yl)amino]benzimidazol-1-yl]-3-pyridyl]ethanol; formic acid]: the results for the 50% inhibitory concentration (IC50) at SIK1, at SIK2 and on SIK3 were 4170 nM, 225 nM and 28.6 nM, respectively.

`Cc1cc(C#N)nn1-c1nc(-n2cnc3cc(Nc4ccc(C5COC5)nn4)ccc32)ccc1C(C)O` (stereo not drawn) [Example 228, 1-[3-(1-Hydroxyethyl)-6-[5-[[6-(oxetan-3-yl)pyridazin-3-yl]amino]benzimidazol-1-yl]-2-pyridyl]-5-methyl-pyrazole-3-carbonitrile]: the IC50 at SIK1 stood at 91 nM; on SIK2, 1 nM; on SIK3, 0.9 nM.

As to `Cc1ccc(Nc2ccc3c(c2)ncn3-c2ccc([C@H](C)O)c(-n3nc(C(F)F)cc3C)n2)nn1` [Example 229, (1S)-1-[2-[3-(Difluoromethyl)-5-methyl-pyrazol-1-yl]-6-[5-[(6-methylpyridazin-3-yl)amino]benzimidazol-1-yl]-3-pyridyl]ethanol], the values for the half-maximal inhibitory concentration (IC50) at SIK1, on SIK2 and at SIK3 were 223 nM, 1.5 nM and 0.4 nM, respectively.

Regarding `Cc1ccc(Nc2ccc3c(c2)ncn3-c2ccc([C@@H](C)O)c(-n3nc(C(F)F)cc3C)n2)nn1` [Example 230, (1R)-1-[2-[3-(Difluoromethyl)-5-methyl-pyrazol-1-yl]-6-[5-[(6-methylpyridazin-3-yl)amino]benzimidazol-1-yl]-3-pyridyl]ethanol], the 50% inhibitory concentration (IC50) stood at 7090 nM on SIK1, 72.4 nM at SIK2 and 19.7 nM on SIK3.

`Cc1ccc(Nc2ccc3c(c2)ncn3-c2ccc(C(C)O)c(-n3nc(C)cc3C(F)F)n2)nn1` (stereo not drawn) [Example 231, 1-[2-[5-(difluoromethyl)-3-methyl-pyrazol-1-yl]-6-[5-[(6-methylpyridazin-3-yl)amino]benzimidazol-1-yl]-3-pyridyl]ethanol]: the IC50 on SIK1 is 1050 nM; on SIK2, 12.9 nM; at SIK3, 2 nM.

`COCC(O)c1ccc(-n2cnc3cc(Nc4ccc(C)nn4)ccc32)nc1-n1nc(C#N)cc1C` (stereo not drawn) [Example 234, 1-[3-(1-Hydroxy-2-methoxy-ethyl)-6-[5-[(6-methylpyridazin-3-yl)amino]benzimidazol-1-yl]-2-pyridyl]-5-methyl-pyrazole-3-carbonitrile; formic acid]: the results for the half-maximal inhibitory concentration (IC50) at SIK1, on SIK2 and at SIK3 were 756 nM, 9.3 nM and 1.1 nM, respectively.

Take `COCC(O)c1ccc(-n2cnc3ccc(Nc4ccc(C)nn4)cc32)nc1-n1nc(C#N)cc1C` (stereo not drawn) [Example 235, 1-[3-(1-Hydroxy-2-methoxy-ethyl)-6-[6-[(6-methylpyridazin-3-yl)amino]benzimidazol-1-yl]-2-pyridyl]-5-methyl-pyrazole-3-carbonitrile]: the IC50 at SIK1 worked out at 647 nM; at SIK2, 245 nM; at SIK3, 201 nM.

Regarding `Cc1ccc(Nc2cc3ncn(-c4ccc([C@H](C)O)c(-n5nc(C#N)cc5C)n4)c3cc2F)nn1` [Example 236, 1-[6-[6-Fluoro-5-[(6-methylpyridazin-3-yl)amino]benzimidazol-1-yl]-3-[(1S)-1-hydroxyethyl]-2-pyridyl]-5-methyl-pyrazole-3-carbonitrile], the results for the IC50 on SIK1, at SIK2 and on SIK3 were 84 nM, 0.3 nM and 0.3 nM, respectively.

Consider `Cc1ccc(Nc2cc3ncn(-c4ccc([C@@H](C)O)c(-n5nc(C#N)cc5C)n4)c3cc2F)nn1` [Example 237, 1-[6-[6-Fluoro-5-[(6-methylpyridazin-3-yl)amino]benzimidazol-1-yl]-3-[(1R)-1-hydroxyethyl]-2-pyridyl]-5-methyl-pyrazole-3-carbonitrile], for which the IC50 at SIK1 came out at 7820 nM; on SIK2, 49.7 nM; at SIK3, 52.8 nM.

`Cc1ccc(Nc2ccc3c(c2)ncn3-c2nc(-n3ccc(C#N)n3)c(C(C)O)cc2Cl)nn1` (stereo not drawn) [Example 239, 1-[5-Chloro-3-(1-hydroxyethyl)-6-[5-[(6-methylpyridazin-3-yl)amino]benzimidazol-1-yl]-2-pyridyl]pyrazole-3-carbonitrile]: the IC50 on SIK1 is above 30000 nM; on SIK2 it was 1390 nM; at SIK3, 329 nM.

`Cc1ccc(Nc2ccc3c(c2)ncn3-c2ccc(C(C)O)c(-c3cnn(CC(F)(F)F)c3C)n2)nn1` (stereo not drawn) [Example 240, 1-[6-[5-[(6-Methylpyridazin-3-yl)amino]benzimidazol-1-yl]-2-[5-methyl-1-(2,2,2-trifluoroethyl)pyrazol-4-yl]-3-pyridyl]ethanol; formic acid]: the half-inhibitory concentration (IC50) at SIK1 was 43 nM; on SIK2, 0.3 nM; at SIK3, 0.2 nM.

Regarding `COc1cc(Cl)nnc1Nc1ccc2c(c1)ncn2-c1ccc(C(C)O)c(-n2nc(C#N)cc2C)n1` (stereo not drawn) [Example 241, 1-[6-[5-[(6-Chloro-4-methoxy-pyridazin-3-yl)amino]benzimidazol-1-yl]-3-(1-hydroxyethyl)-2-pyridyl]-5-methyl-pyrazole-3-carbonitrile], the IC50 at SIK1 came out at 173 nM; on SIK2, 1.8 nM; at SIK3, 0.9 nM.

On to `Cc1ccc(Nc2ccc3c(c2)ncn3-c2ccc(C(C)O)c(N3C[C@H](C#N)C[C@@H]3C)n2)nn1` (stereo partly drawn) [Example 242, (3R,5S)-1-[3-(1-hydroxyethyl)-6-[5-[(6-methylpyridazin-3-yl)amino]benzimidazol-1-yl]-2-pyridyl]-5-methyl-pyrrolidine-3-carbonitrile; formic acid], for which the half-inhibitory concentration (IC50) at SIK1 came to 843 nM; on SIK2, 9.5 nM; at SIK3, 1.8 nM.

On to `Cc1ccc(Nc2ccc3c(c2)ncn3-c2nc(-n3nc(C#N)cc3C)c(C(C)O)cc2Cl)nn1` (stereo not drawn) [Example 245, 1-[5-Chloro-3-(1-hydroxyethyl)-6-[5-[(6-methylpyridazin-3-yl)amino]benzimidazol-1-yl]-2-pyridyl]-5-methyl-pyrazole-3-carbonitrile; formic acid], for which the 50% inhibitory concentration (IC50) was 6410 nM on SIK1, 72.5 nM on SIK2 and 67.4 nM on SIK3.
